Test results from article PMC12884772, “Macrophagic Sclerostin Loop2‐ApoER2 Interaction Required by Sclerostin for Cardiovascular Protective Action” (Advanced Science, 2025).

Test system: mouse macrophages (RAW 264.7)
Experiment: LPS‐induced inflammatory responses in mouse macrophages (RAW 264.7), siNC or siLrp8
Type: cell-based
Protocol: To determine whether the suppressive effects of sclerostin on inflammatory responses in macrophages were dependent on ApoER2 in vitro, PMA (100 ng/mL, 48 h)‐induced human differentiated macrophages (THP‐1 cells, Procell Life Science & Technology, CL‐0233) and mouse macrophages (RAW 264.7 cells, ATCC, TIB‐71) were utilized. Human differentiated macrophages or mouse macrophages were divided into 9 groups (n = 3 per group), respectively, including (1) siNC, (2) siNC + LPS, (3) siNC + LPS + SOST 500 nM or 250 nM, (4) siNC + LPS + SOST 1 µM or 500 nM, (5) siNC + LPS + SOST 2 µM or 1 µM, (6) siLrp8 + LPS + SOST 500 nM or 250 nM, (7) siLrp8 + LPS + SOST 1µM or 500 nM, (8) siLrp8 + LPS + SOST 2 µM or 1 µM, (9) siLrp8 + LPS. Cells in groups (6‐9) were transfected with siRNA targeting human/mouse Lrp8 (human siLrp8: Santa Cruz Biotechnology sc‐40097, mouse siLrp8: Santa Cruz Biotechnology sc‐40098), while cells in groups (1‐5) were transfected with empty vector as control (siNC). 24 h later, cells in group (3)/(6), (4)/(7), and (5)/(8) were treated with recombinant human or mouse sclerostin for 3 h at concentration of 500 nM or 250 nM, 1 µM or 500 nM, as well as 2 µM or 1 µM, respectively, while cells in groups (1), (2), and (9) were treated with vehicle. Then, cells in groups (2‐9) were treated with LPS (100 ng/mL or 1 µg/mL) for 18 h. All groups of cell lysates were collected for determining the mRNA expression levels of TNF‐α, MCP‐1, and IL‐10 (human or mouse, respectively) by RT‐PCR.^[ [34] ^] Cell mediums were collected for determining the protein expression/secretion levels of TNF‐α, MCP‐1, and IL‐10 (human or mouse, respectively) by ELISA.^[ [34] ^]
Total RNA was extracted from cells following the protocols of Trizol reagent (Invitrogen, 15 596 026). […] The relative gene expression levels were calculated using the 2^−ΔΔCt method with GAPDH as the reference gene.^[ [40] ^] […]

[1] = RAW 264.7, LPS 1 µg/mL 18 h, recombinant mouse sclerostin 250 nM-1 µM for 3 h, RT‐PCR and ELISA, n = 3

**Q.** “sclerostin: recombinant human/mouse full‐length sclerostin protein” was tested. Which “mRNA expression and protein expression/secretion of IL‐10” value [1] did it give?
**A.** The value was “promoted”.

**Q.** And the “mRNA expression and protein expression/secretion of TNF‐α and MCP‐1” value [1]?
**A.** The value was “inhibited”.

**Q.** And the “Effects of sclerostin on cytokine/chemokine expression/secretion upon Lrp8 silencing” value (RAW 264.7 with siLrp8, LPS 1 µg/mL 18 h)?
**A.** Its value is “not detected”.
